From the supplement of paper PMC5908809

Assays:
[1] = tested on: normal NK cells expanded with K562-aAPC; assay: percent inhibition of viability; higher = more inhibition; conditions: 72 h, IL-2 2.5 ng/mL
Description: (§1)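 Drug sensitivity and resistance testing on K562-aAPC-expanded normal NK cells: 5 concentrations (10-fold steps over a 10,000-fold range), 72 h at 37 °C, viability by CellTiter-Glo normalised to DMSO and benzethonium chloride controls; DSS from the fitted curve.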

[2] = tested on: normal NK cells expanded with K562-aAPC; assay: drug sensitivity score (DSS) (DSS units); higher = more sensitive; extreme values may be limits of the assay; conditions: 72 h; IL-2 2.5 ng/mL
Description: as §1

[3] = tested on: NK-YS (IL-2 2.5 ng/mL); assay: percent inhibition of viability; higher = more inhibition; conditions: 72 h
[4] = tested on: NKL (IL-2 2.5 ng/mL); assay: as above; conditions: 72 h
[5] = tested on: normal primary NK cells, pool 3 (3 donors) (IL-2 2.5 ng/mL); assay: as above; conditions: 72 h
[6] = tested on: normal primary NK cells, pool 2 (3 donors) (IL-2 2.5 ng/mL); assay: as above; conditions: 72 h
[7] = tested on: IMC-1 (IL-2 20 ng/mL); assay: as above; conditions: 72 h
[8] = tested on: YT (IL-2 2.5 ng/mL); assay: as above; conditions: 72 h
[9] = tested on: SNK-6 (IL-2 2.5 ng/mL); assay: as above; conditions: 72 h
[10] = tested on: KAI3 (IL-2 2.5 ng/mL); assay: as above; conditions: 72 h
[11] = tested on: NK-92 (IL-2 2.5 ng/mL); assay: as above; conditions: 72 h
[12] = tested on: normal primary NK cells, pool 1 (3 donors) (IL-2 2.5 ng/mL); assay: as above; conditions: 72 h
[13] = tested on: DERL-7 (IL-2 2.5 ng/mL); assay: as above; conditions: 72 h
[14] = tested on: normal primary NK cells, pool 1 (3 donors), resting (IL-2 0 ng/mL); assay: as above; conditions: 72 h
[15] = tested on: KHYG-1 (IL-2 2.5 ng/mL); assay: as above; conditions: 72 h
[16] = tested on: NK-YS (IL-2 2.5 ng/mL); assay: drug sensitivity score (DSS) (DSS units); higher = more sensitive; extreme values may be limits of the assay; conditions: 72 h
[17] = tested on: NKL (IL-2 2.5 ng/mL); assay: as above; conditions: 72 h
[18] = tested on: normal primary NK cells, pool 3 (3 donors) (IL-2 2.5 ng/mL); assay: as above; conditions: 72 h
[19] = tested on: normal primary NK cells, pool 2 (3 donors) (IL-2 2.5 ng/mL); assay: as above; conditions: 72 h
[20] = tested on: IMC-1 (IL-2 20 ng/mL); assay: as above; conditions: 72 h
[21] = tested on: YT (IL-2 2.5 ng/mL); assay: as above; conditions: 72 h
[22] = tested on: SNK-6 (IL-2 2.5 ng/mL); assay: as above; conditions: 72 h
[23] = tested on: KAI3 (IL-2 2.5 ng/mL); assay: as above; conditions: 72 h
[24] = tested on: NK-92 (IL-2 2.5 ng/mL); assay: as above; conditions: 72 h
[25] = tested on: normal primary NK cells, pool 1 (3 donors) (IL-2 2.5 ng/mL); assay: as above; conditions: 72 h
[26] = tested on: DERL-7 (IL-2 2.5 ng/mL); assay: as above; conditions: 72 h
[27] = tested on: normal primary NK cells, pool 1 (3 donors), resting (IL-2 0 ng/mL); assay: as above; conditions: 72 h
[28] = tested on: KHYG-1 (IL-2 2.5 ng/mL); assay: as above; conditions: 72 h

SMILES: COCC[n+]1c2c(n(Cc3cnccn3)c1C)C(=O)c1ccccc1C2=O [YM155] (max concentration tested 10000 nM)
- percent inhibition of viability ([1]; 1 nM): -6.82%
- percent inhibition of viability ([1]; 10 nM): 3.02%
- percent inhibition of viability ([1]; 100 nM): 36.7%
- percent inhibition of viability ([1]; 1000 nM): 96.8%
- percent inhibition of viability ([1]; 10000 nM): 100%
- drug sensitivity score [2]: 22
- percent inhibition of viability ([3]; 1 nM): 0.18%
- percent inhibition of viability ([3]; 10 nM): 29%
- percent inhibition of viability ([3]; 100 nM): 97.7%
- percent inhibition of viability ([3]; 1000 nM): 107%
- percent inhibition of viability ([3]; 10000 nM): 103%
- percent inhibition of viability ([4]; 1 nM): 10.2%
- percent inhibition of viability ([4]; 10 nM): 90.5%
- percent inhibition of viability ([4]; 100 nM): 104%
- percent inhibition of viability ([4]; 1000 nM): 108%
- percent inhibition of viability ([4]; 10000 nM): 102%
- percent inhibition of viability ([5]; 1 nM): -2.28%
- percent inhibition of viability ([5]; 10 nM): 1.02%
- percent inhibition of viability ([5]; 100 nM): 6.74%
- percent inhibition of viability ([5]; 1000 nM): 31.9%
- percent inhibition of viability ([5]; 10000 nM): 86.7%
- percent inhibition of viability ([6]; 1 nM): -1.75%
- percent inhibition of viability ([6]; 10 nM): 4.96%
- percent inhibition of viability ([6]; 100 nM): 15.5%
- percent inhibition of viability ([6]; 1000 nM): 50.5%
- percent inhibition of viability ([6]; 10000 nM): 97.1%
- percent inhibition of viability ([7]; 1 nM): 65.3%
- percent inhibition of viability ([7]; 10 nM): 99.4%
- percent inhibition of viability ([7]; 100 nM): 100%
- percent inhibition of viability ([7]; 1000 nM): 101%
- percent inhibition of viability ([7]; 10000 nM): 100%
- percent inhibition of viability ([8]; 1 nM): 5.75%
- percent inhibition of viability ([8]; 10 nM): 59.2%
- percent inhibition of viability ([8]; 100 nM): 102%
- percent inhibition of viability ([8]; 1000 nM): 106%
- percent inhibition of viability ([8]; 10000 nM): 102%
- percent inhibition of viability ([9]; 1 nM): 8.28%
- percent inhibition of viability ([9]; 10 nM): 13.1%
- percent inhibition of viability ([9]; 100 nM): 85.6%
- percent inhibition of viability ([9]; 1000 nM): 98.6%
- percent inhibition of viability ([9]; 10000 nM): 100%
- percent inhibition of viability ([10]; 1 nM): 8.21%
- percent inhibition of viability ([10]; 10 nM): 49.4%
- percent inhibition of viability ([10]; 100 nM): 93.5%
- percent inhibition of viability ([10]; 1000 nM): 106%
- percent inhibition of viability ([10]; 10000 nM): 103%
- percent inhibition of viability ([11]; 1 nM): -8.35%
- percent inhibition of viability ([11]; 10 nM): 27.6%
- percent inhibition of viability ([11]; 100 nM): 93.5%
- percent inhibition of viability ([11]; 1000 nM): 105%
- percent inhibition of viability ([11]; 10000 nM): 102%
- percent inhibition of viability ([12]; 1 nM): -4.81%
- percent inhibition of viability ([12]; 10 nM): -8.82%
- percent inhibition of viability ([12]; 100 nM): 20.6%
- percent inhibition of viability ([12]; 1000 nM): 54.2%
- percent inhibition of viability ([12]; 10000 nM): 100%
- percent inhibition of viability ([13]; 1 nM): 7.39%
- percent inhibition of viability ([13]; 10 nM): 49.9%
- percent inhibition of viability ([13]; 100 nM): 100%
- percent inhibition of viability ([13]; 1000 nM): 101%
- percent inhibition of viability ([13]; 10000 nM): 100%
- percent inhibition of viability ([14]; 1 nM): -2.05%
- percent inhibition of viability ([14]; 10 nM): -12.4%
- percent inhibition of viability ([14]; 100 nM): 35.7%
- percent inhibition of viability ([14]; 1000 nM): 79.2%
- percent inhibition of viability ([14]; 10000 nM): 98.8%
- percent inhibition of viability ([15]; 1 nM): 2.01%
- percent inhibition of viability ([15]; 10 nM): 20.5%
- percent inhibition of viability ([15]; 100 nM): 102%
- percent inhibition of viability ([15]; 1000 nM): 106%
- percent inhibition of viability ([15]; 10000 nM): 102%
- drug sensitivity score [16]: 34.2
- drug sensitivity score [17]: 42.9
- drug sensitivity score [18]: 8.63
- drug sensitivity score [19]: 12
- drug sensitivity score [20]: 48.1
- drug sensitivity score [21]: 37.6
- drug sensitivity score [22]: 29.9
- drug sensitivity score [23]: 35.8
- drug sensitivity score [24]: 33.2
- drug sensitivity score [25]: 12.9
- drug sensitivity score [26]: 36.2
- drug sensitivity score [27]: 19.1
- drug sensitivity score [28]: 33.8
